# Assay results reported in patent US6699459B2, “Methods of treating lung inflammation” (The Board of Regents of the University of Texas System, priority 2001, dated 2004).
# Tests used:
# RANTES [1] = test: RSV-induced RANTES secretion in A549 cells (ELISA); type: cell-based, human; conditions: for RSV-induced RANTES production: A549 cells, 24 hours, ELISA; for RSV-induced RANTES secretion: concentration not given, data not shown
# Description: (§1) Cell culture and infection of epithelial cells with RSV. A549, human alveolar type II-like epithelial cells (ATCC, Manassas, Va.), were maintained in F12K medium containing 10% (v/v) fetal bovine serum (FBS), 10 mM glutamine, 100 IU/ml penicillin and 100 μg/ml streptomycin. Small alveolar epithelial cells (SAE) were obtained from Clonetics (San Diego, Calif.) and grown according to the company instructions. Cell monolayers were infected with RSV at multiplicity of infection (MOI) of 1 (unless otherwise stated), as described (17). An equivalent amount of a 20% sucrose solution was added to uninfected A549 cells, as a control. For the antioxidant experiments, cells were pretreated with the antioxidants for one hour and then infected in the presence of the antioxidants. Since BHA was diluted in ethanol, equal amounts of ethanol were added to untreated cells, as a control. Total number of cells, cell viability and viral replication, following antioxidant treatment, were measured by trypan blue exclusion and by plaque assay, respectively. RANTES ELISA. Immunoreactive RANTES was quantitated by a double antibody ELISA kit (DuoSet, R&D Systems, Minneapolis, Minn.) following the manufacturer's protocol.
# STAT = test: RSV-induced STAT activation in alveolar epithelial cells; type: cell-based
# RANTES [2] = test: RSV-induced RANTES secretion in SAE cells (ELISA); type: cell-based, human; conditions: 20 mM, 24 hours, ELISA
# Description: as §1
# NOS-2 = conditions: retinal epithelial cells, LPS/Interferon-γ; Faure et al. (40); cited from earlier work
compound,measurement,setting,value
"C[S+](C)[O-] [DMSO, dimethylsulphoxide]",RSV-induced RANTES production,RANTES [1]; 2% (v/v),significantly block
c1ccc2c(c1)[I+]c1ccccc1-2 [DPI],STAT activation following RSV infection,STAT,greatly reduces (or abolishes)
COC(=O)[C@@H](N)CCCNC(=N)N[N+](=O)[O-] [L-NAME],RSV-induced RANTES secretion,RANTES [1],no changes
CNC(=N)NCCC[C@H](N)C(=O)O [L-NMMA],RSV-induced RANTES secretion,RANTES [1],no changes
"CC(=O)N[C@@H](CS)C(=O)O [NAC, N-acetyl cystein, reference compound]",RSV-induced RANTES production,RANTES [1]; 20 mM,significantly block
same,RSV-induced RANTES production,RANTES [2],significantly reduced
S=C(S)N1CCCC1 [PDTC],NOS-2 induction,NOS-2,able to inhibit
"CN(C)C(=S)N(C)C [TMTU, tetramethyl thiourea, reference compound]",RSV-induced RANTES production,RANTES [1]; 20 mM,significantly block
same,RSV-induced RANTES production,RANTES [2],significantly reduced
